Test results published in patent US20260240802A1, “USE OF MYRIOCIN AS ADJUVANT IN GLAUCOMA SURGERY” (priority 2023, published 2026).
Entries after “also recorded” stand apart in the source; their conditions may differ. Like-named read-outs stand apart in the source and are kept apart here.

What was measured:
fibroblasts [1] = conditions: Josamycin 69.4 μg/ml (JM69.4); cited from earlier work
human dermic fibroblasts [2] = assay: Scratch test assay; assay type: cell-based
Protocol: (§1) The fibroblasts, cultivated in culture medium DMEM (EuroClone) additioned with 10% of Fetal Bovine Serum (EuroClone) and 1% of penicillin/streptomycin (Sigma-Aldrich), were kept in incubator at 37° C., 5% of CO2 until reaching the full confluence which corresponds approximately to 1.2-1.3*10^6 cells. After detachment from the culture flasks (T75) with a solution of trypsin/EDTA, 1.5-2.5*10^5 or 4.0*10^5 fibroblasts were respectively plated in 60-mm or 100-mm wide Petri dishes for the subsequent treatments.
In six-well plates, 150,000 fibroblasts/well were plated and left to proliferate until reaching a confluence of 80-90%. At this point, defined time zero (T0), the cellular monolayer is damaged by creating a vertical groove corresponding to the well diameter.

postoperative fibrosis = conditions: after 5 years, mitomycin C in intraoperative therapy (before: 24-74% after 4 years); cited from earlier work
human dermic fibroblasts [3] = assay type: cell-based; conditions: for total cells after 24 hours of treatment: human
Protocol: as §1
The fibroblasts, cultivated in ninety-six-well plates, were divided into the experimental groups: ctr, Mito and Myr. 24 hours after sowing (T0), the controls were collected for counting the live and dead cells and one proceeded with the treatment of the groups Mito and Myr for the subsequent 24 hours, with the respective substances. After detachment with a solution of trypsin/EDTA, the fibroblasts were isolated by centrifugation (100 g×6 minutes) and the obtained precipitate was resuspended in phosphate buffer. To the cellular suspension, 10% of 0.4% Trypan Blue dye solution was added. The live cells and the dead cells, coloured blue for the intracellular permeation of the dye through the damaged plasmatic membrane, are counted by using Bürker camera (Fabiani C., et al., Naunyn-Schmiedebergs Arch. Pharmacol. 2017; 390:741-751).

fibroblasts [4] = assay: proliferation/vitality MTT assay; assay type: cell-based; conditions: 24 hours, Myriocin 50 μM, not treated fibroblasts = 100%
Protocol: These proliferation data result to be an improvement with respect to those obtained by the authors with JM47.2, which is equivalent to a concentration of approximately 56 μM, not considered among the effective concentrations in anti-fibrotic sense.

collagen = assay: transcription and translation of collagen in fibroblasts (FIG. 4); assay type: cell-based; conditions: pre-treated 1 hour with Myriocin 50 µM, then 24 hours in combination with TGFβ 5 ng/ml
Protocol: FIG. 4: Ctrl: not treated fibroblasts; TGFβ: fibroblasts treated 24 hours with TGFβ 5 ng/ml; TGFβ/Myr: fibroblasts pre-treated 1 hour with Myriocin 50 µM and for subsequent 24 hours in combination with TGFβ 5 ng/ml; TGFβ/Mito: fibroblasts pre-treated 5 minutes with Mitomycin 50 µM, and for subsequent 24 hours with TGFβ 5 ng/ml in absence of Mitomycin.

human dermic fibroblasts [5] = assay type: cell-based; conditions: fibroblasts activated with TGFβ, compared with mitomycin C
Protocol: The anti-fibrotic activity of myriocin, compared to that of mitomycin C, was evaluated in vitro by using human dermic fibroblasts of healthy subjects, available commercially.
as §1
The cells were divided into six experimental groups: • 1. control group without treatment (denominated ctr) • 2. group treated with TGFβ (denominated TGFβ) • 3. group treated with Myriocin and TGFβ (denominated Myr/TGFβ) • 4. group treated with Mitomycin C and TGFβ (denominated Mito/TGFβ) • 5. group treated with Myriocin (denominated Myr) • 6. group treated with Mitomycin C (denominated Mito)
On the day of treatment, in groups ctr, TGFβ, Myr, Myr/TGFβ the culture medium was replaced by fresh medium. The groups Myr and Myr/TGFβ were pretreated for 1 hour with myriocin 5 mM (Sigma-Aldrich) so as to obtain a final concentration of 50 μM. […]

[6] = target: T1, serine-palmitoyl transferase (Homo sapiens, UniProt O15269+O15270); assay: mass spectrometry of the ceramide content of fibroblasts; assay type: cell-based; conditions: myriocin 50 μM
T1 construct: the fibroblasts were isolated by centrifugation; endogenous in cells
T1 sequence (O15269 1-473): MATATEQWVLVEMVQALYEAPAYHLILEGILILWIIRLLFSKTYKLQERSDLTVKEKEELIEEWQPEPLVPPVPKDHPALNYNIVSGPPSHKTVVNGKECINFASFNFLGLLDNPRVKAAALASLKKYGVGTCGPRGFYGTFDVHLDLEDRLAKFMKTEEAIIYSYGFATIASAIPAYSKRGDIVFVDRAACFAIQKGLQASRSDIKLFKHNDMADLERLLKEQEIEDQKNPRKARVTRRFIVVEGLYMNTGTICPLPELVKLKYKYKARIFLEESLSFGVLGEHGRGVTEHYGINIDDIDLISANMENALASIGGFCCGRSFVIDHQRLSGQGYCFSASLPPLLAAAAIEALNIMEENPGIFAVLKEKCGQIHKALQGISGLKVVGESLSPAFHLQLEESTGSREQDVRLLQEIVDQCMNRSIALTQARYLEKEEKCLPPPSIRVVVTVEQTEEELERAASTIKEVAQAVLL
T1 sequence (O15270 1-562): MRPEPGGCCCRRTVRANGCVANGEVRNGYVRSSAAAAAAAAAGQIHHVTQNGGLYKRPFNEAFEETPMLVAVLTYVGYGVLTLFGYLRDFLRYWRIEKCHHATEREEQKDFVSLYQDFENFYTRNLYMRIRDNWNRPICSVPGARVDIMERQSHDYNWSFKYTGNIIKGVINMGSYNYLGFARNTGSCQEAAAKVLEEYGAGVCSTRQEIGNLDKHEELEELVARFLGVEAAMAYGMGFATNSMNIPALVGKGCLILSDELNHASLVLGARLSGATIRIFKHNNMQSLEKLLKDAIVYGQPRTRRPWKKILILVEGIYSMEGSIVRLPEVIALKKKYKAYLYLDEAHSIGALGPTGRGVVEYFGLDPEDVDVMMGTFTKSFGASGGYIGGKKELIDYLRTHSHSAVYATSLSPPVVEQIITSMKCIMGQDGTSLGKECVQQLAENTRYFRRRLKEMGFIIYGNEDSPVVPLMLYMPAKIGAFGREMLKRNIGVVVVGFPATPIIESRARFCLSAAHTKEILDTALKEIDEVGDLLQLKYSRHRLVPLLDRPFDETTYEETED
T1 sequence (Q969W0 1-71 partner): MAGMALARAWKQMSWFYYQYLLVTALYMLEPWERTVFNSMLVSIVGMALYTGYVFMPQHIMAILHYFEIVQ
Protocol: On the day of treatment, in groups ctr, TGFβ, Myr, Myr/TGFβ the culture medium was replaced by fresh medium. The groups Myr and Myr/TGFβ were pretreated for 1 hour with myriocin 5 mM (Sigma-Aldrich) so as to obtain a final concentration of 50 μM. […] The pretreatment with mitomycin C, lasting 5 minutes to simulate the administration time in the operating room of the drug on the patient suffering from glaucoma, was interrupted by two washes, each one lasting 2 minutes, with phosphate buffer (PBS). To the groups TGFβ, Myr/TGFβ and Mito/TGFβ, TGFβ 200 ng/ml is then added to obtain a final concentration of 5 ng/ml, as reported in literature (Wu N. et al., Mol Cell Biochem. 2020; 470:175-188). The fibroblasts were then put in incubator for 24 hours, until performing the different analyses.
After detachment with a solution of trypsin/EDTA, the fibroblasts were isolated by centrifugation (100 g×6 minutes). The obtained precipitate was resuspended in phosphate buffer (PBS), centrifuged at 100 g×6 minutes, resuspended again in phosphate buffer (PBS) and centrifuged at 500 g×5 minutes at 4° C. The precipitate was resuspended in 100 μl of PBS containing a mixture of protease inhibitors (Protease Inhibitor Cocktails, EDTA-free, Roche) and kept at −20° C. until use. The extraction of the lipids and the analysis of the samples for evaluating the ceramide content, whose synthesis is locked by inhibiting the enzyme serine-palmitoyl transferase by Myr, follow published protocols (Morano C. et al., Metabolites. 2022; 12 (5): 450).

[7] = test system: CTGF (Connective Tissue Growth Factor); assay: RT-PCR expression of transcript CTGF in fibroblasts; assay type: cell-based, human; conditions: myriocin 50 μM 1 hour pretreatment + 24 hours with TGFβ 5 ng/ml
Protocol: (§2) Expression of the transcript (mRNA) of αSMA, CTGF, MMP-9 evaluated by RT-PCR, in fibroblasts: control (ctr); stimulated with TGFβ (TGFβ); pretreated 1 hour with Myriocin and for the subsequent 24 hours in combination with TGFβ (Myr/TGFβ); pretreated 5 minutes with Mitomycin C, washed and treated for the subsequent 24 hours with TGFβ (Mito/TGFβ); pretreated 1 hour with Myriocin and for the subsequent 24 hours with Myriocin (Myr); pretreated 5 minutes with Mitomycin C, washed and for the subsequent 24 hours with culture medium (Mito). The results represent the average±standard error of 5 experiments and they are represented as variation with respect to the control (ratio between the expression in the various groups and the control). The control is set equal to 1 and designated in figure with the dotted line. […]
(§3) The following transcripts of interest were analysed: • αSMA (α Smooth Muscle Actin): marker of the activation of the fibroblasts to miofibroblasts; • CTGF (Connective Tissue Growth Factor): protein of the extracellular matrix with pro-fibrotic activity; • MMP-9 (Matrix metalloproteinase 9): enzyme which degrades the proteins of the extracellular matrix.

[8] = test system: αSMA (α Smooth Muscle Actin); assay: RT-PCR expression of transcript αSMA in fibroblasts; assay type: cell-based, human; conditions: myriocin 50 μM 1 hour pretreatment + 24 hours with TGFβ 5 ng/ml
Protocol: as §2, §3

[9] = test system: MMP-9 (Matrix metalloproteinase 9); assay: RT-PCR expression of transcript MMP-9 in fibroblasts; assay type: cell-based, human; conditions: myriocin 50 μM 1 hour pretreatment + 24 hours with TGFβ 5 ng/ml
Protocol: as §2, §3

SMILES: CO[C@@H]1[C@@H](O[C@@H]2O[C@H](C)[C@@H](O[C@H]3C[C@@](C)(O)[C@@H](OC(=O)CC(C)C)[C@H](C)O3)[C@H](N(C)C)[C@H]2O)[C@@H](CC=O)C[C@@H](C)[C@@H](O)/C=C/C=C/C[C@@H](C)OC(=O)C[C@H]1OC(C)=O [Josamycin]
- proliferation percentage of the fibroblasts (fibroblasts [1]): less than 50%

SMILES: CO[C@@]12[C@H](COC(N)=O)C3=C(C(=O)C(C)=C(N)C3=O)N1C[C@@H]1N[C@@H]12 [Mitomycin C]
- cellular death (human dermic fibroblasts [2]; 50 μM, 24 and 48 hours): induced a progressive cellular death
- migration of fibroblasts after damage of the cellular carpet (human dermic fibroblasts [2]; 50 μM, 24 and 48 hours, listed as Mitomycin): migrate only partially
- migration of fibroblasts after damage of the cellular carpet (human dermic fibroblasts [2]; 50 μM, 24 and 48 hours, listed as mitomycin C): reduced the migration of fibroblasts
- morphological change of fibroblasts (human dermic fibroblasts [2]; between T1 (24 hours) and T2 (48 hours)): progressive morphological change (from tapering to rounded)
- percentage of failure of the surgical therapy (postoperative fibrosis): 23-51%
- change of total cells after 24 hours (human dermic fibroblasts [3]): halved
- total cells after 24 hours of treatment (human dermic fibroblasts [3]): 5466 total cells/well

SMILES: CCCCCCC(=O)CCCCCC/C=C/C[C@@H](O)[C@H](O)[C@@](N)(CO)C(=O)O [Myriocin]
- migration of fibroblasts after damage of the cellular carpet (human dermic fibroblasts [2]; 50 μM, 24 and 48 hours): migrate only partially
- migration of fibroblasts after damage of the cellular carpet (human dermic fibroblasts [2]; 50 μM, 24 and 48 hours, listed as myriocin): reduced the migration of fibroblasts
- % proliferation (relative proliferation/vitality index) (fibroblasts [4]): higher than 60%
- % proliferation (relative proliferation/vitality index) (fibroblasts [4]; listed as MYR): 62%
- transcription (panel A) and translation (panel B) of collagen (collagen): capable of controlling the transcription (panel A) and the translation (panel B) of collagen
- anti-fibrotic efficacy (human dermic fibroblasts [5]): comparable to mitomycin C
- anti-fibrotic efficacy (human dermic fibroblasts [5]; listed as myriocin): comparable to that of the drug mitomycin C
- reduction of ceramide level with respect to basal ctr ([6]; Myr group vs ctr): about 15%
- reduction of dihydroceramide level with respect to basal ctr ([6]; Myr group vs ctr): ~25%
- reduction of ceramide level with respect to the group stimulated with TGFβ ([6]; Myr/TGFβ vs TGFβ, TGFβ 5 ng/ml): ~50%
- reduction of dihydroceramide level with respect to the group stimulated with TGFβ ([6]; Myr/TGFβ vs TGFβ, TGFβ 5 ng/ml): ~60%
- reduction of CTGF transcript expression increase induced by TGFβ [7]: more effective than mitomycin C
- reduction of αSMA transcript expression increase induced by TGFβ [8]: more effective than mitomycin C; also recorded: reduces the expression of αSMA
- increase of total cells after 24 hours (human dermic fibroblasts [3]; after 24 hours vs T0): about 70%
- total cells after 24 hours of treatment (human dermic fibroblasts [3]): 11733 total cells/well
- reduction of MMP-9 transcript expression increase induced by TGFβ [9]: more effective than mitomycin C; also recorded: reducing the expression of MMP-9
